pIC50: −log10 of the molar value.
Assays:
VCAM-1 = assay: In Vitro VCAM-1 Assay (TNF-α stimulated HAEC or HPAEC, cell ELISA); format: cell-based, human; conditions: Homo sapiens, 16 h, TNF-α (1 ng/ml) stimulated HAEC or HPAEC, approximately 16 hours
Procedure: Cell Culture and compound dosing: Cultured primary human aortic (HAEC) or pulmonary (HPAEC) endothelial cells were obtained from Clonetics, Inc., and were used below passage 9. Cells were seeded in 96 well plates such that they would reach 90–95% confluency by the following day. On the following day the cells were stimulated with TNF-α (1 ng/ml) in the presence or absence of compounds dissolved in DMSO such that the final concentration of DMSO is 0.25% or less. To establish a dose curve for each compound, four concentrations in 2- to 5-fold increments were used. Cells were exposed to TNF-α and compounds for approximately 16 hours. The next day the cells were examined under microscope to score for visual signs of toxicity or cell stress.
Following 16 hr exposure to TNF-α and compound the media was discarded and the cells were washed once with Hanks Balanced Salt Solution (HBSS)/Phosphate buffered saline (PBS) (1:1). Primary antibodies against VCAM-1 (0.25 μg/ml in HBSS/PBS+5% FBS) were added and incubated for 30–60 minutes at 37° C. Cells were washed with HBSS/PBS three times, and secondary antibody Horse Radish Peroxidase (HRP)-conjugated goat anti-mouse IgG (1:500 in HBSS/PBS+5% FBS) were added and incubated for 30 minutes at 37° C. Cells were washed with HBSS/PBS four time and TMB substrate were added and incubated at room temperature in the dark until there was adequate development of blue color. The length of time of incubation was typically 5–15 minutes. 2N sulfuric acid was added to stop the color development and the data was collected by reading the absorbance on a BioRad ELISA plate reader at OD 450 nm. The results are expressed as IC50 values (the concentration (micromolar) of compound required to inhibit 50% of the maximal response of the control sample stimulated by TNF-α only).

Row | SMILES | pIC50 (VCAM-1) | melting point
1 | COc1cc(OC)c(-c2c(C)noc2C)cc1/C=C/C(=O)c1ccc(C(=O)O)cc1 [Example 33, 4-{3E-[5-(3,5-Dimethyl-isoxazol-4-yl)-2,4-dimethoxy-phenyl]-acryloyl}-benzoic acid] | > 5.30 | > 260 °C
2 | COc1ccc(/C=C/C(=O)c2ccc(C(=O)O)cc2)c(-c2cccs2)c1 [Example 34, 4-[3E-(4-Methoxy-2-thiophen-2-yl-phenyl)-acryloyl]-benzoic acid] | < 5.00 | 209 to 211 °C
3 | COc1cc(OC)c(-c2cccs2)cc1/C=C/C(=O)c1ccccc1C(=O)O [Example 35, 2-[3E-(2,4-Dimethoxy-5-thiophen-2-yl-phenyl)-acryloyl]-benzoic acid] | < 5.00 | 196 to 198 °C
4 | COc1cc(-c2cccs2)cc(OC)c1/C=C/C(=O)c1ccc(C(=O)O)cc1 [Example 37, 4-[3E-(2,6-Dimethoxy-4-thiophen-2-yl-phenyl)-acryloyl]-benzoic acid] | < 5.00 | 256 to 258 °C
5 | COc1ncc(-c2cc(/C=C/C(=O)c3ccc(C(=O)O)cc3)c(OC)cc2OC)c(OC)n1 [Example 38, 4-{3E-[5-(2,4-Dimethoxy-pyrimidin-5-yl)-2,4-dimethoxy-phenyl]-acryloyl}-benzoic acid] | > 5.00 | 203 to 205 °C
6 | COc1cc(OC)c(/C=C/C(=O)c2ccc(C(=O)O)cc2)c(-c2cccs2)c1 [Example 39, 4-[3E-(2,4-Dimethoxy-6-thiophen-2-yl-phenyl)-acryloyl]-benzoic acid] | < 5.00 | 231 °C (dec.)
7 | COc1cc(OC)c(-c2ccc(C)s2)cc1/C=C/C(=O)c1ccc(C(=O)O)cc1 [Example 40, 4-{3E-[2,4-Dimethoxy-5-(5-methyl-thiophen-2-yl)-phenyl]-acryloyl}-benzoic acid] | > 6.00 | 213 to 215 °C
8 | COc1ccc(/C=C/C(=O)c2ccc(C(=O)O)cc2)cc1-c1cccs1 [Example 41, 4-[3E-(4-Methoxy-3-thiophen-2-yl-phenyl)-acryloyl]-benzoic acid] | > 5.30 | 219 to 220 °C
9 | O=C(O)c1ccc(C(=O)/C=C/c2cccc(-c3cccs3)c2)cc1 [Example 42, 4-[3E-(3-Thiophen-2-yl-phenyl)-acryloyl]-benzoic acid] | > 5.30 | 238 °C (dec.)
10 | COc1cc(OC)c(-c2cccs2)cc1/C=C/C(=O)c1cccc(C(=O)O)c1 [Example 43, 3-[3E-(2,4-Dimethoxy-5-thiophen-2-yl-phenyl)-acryloyl]-benzoic acid] | > 5.30 | 179 to 182 °C
11 | COc1ccc(/C=C/C(=O)c2ccc(C(=O)O)cc2)c(OC)c1-c1cc2ccccc2s1 [Example 44, 4-[3E-(3-Benzo[b]thiophen-2-yl-2,4-dimethoxy-phenyl)-acryloyl]-benzoic acid] | > 6.00 | 237 °C (dec.)
12 | COc1ccc(-c2cccs2)cc1/C=C/C(=O)c1ccc(C(=O)O)cc1 [Example 45, 4-[3E-(2-Methoxy-5-thiophen-2-yl-phenyl)-acryloyl]-benzoic acid] | > 5.30 | 195 to 196 °C
13 | COc1cc(OC)c(-c2cnccn2)cc1/C=C/C(=O)c1ccc(C(=O)O)cc1 [Example 46, 4-[3E-(2,4-Dimethoxy-5-pyrazin-2-yl-phenyl)-acryloyl]-benzoic acid] | > 5.00 | 238 °C (dec.)
14 | COc1cc(OC(C)(C)C(=O)O)c(-c2cccs2)cc1/C=C/C(=O)c1ccc(C(=O)O)cc1 [Example 47, 4-{3E-[4-(1-Carboxy-1-methyl-ethoxy)-2-methoxy-5-thiophen-2-yl-phenyl]-acryloyl}-benzoic acid] | < 5.00 | 135 to 137 °C
15 | COc1ccc(/C=C/C(=O)c2ccccc2C(=O)O)cc1-c1cccs1 [Example 48, 2-[3E-(4-Methoxy-3-thiophen-2-yl-phenyl)-acryloyl]-benzoic acid] | > 5.00 | 79 to 81 °C
16 | COCCOCCOc1cc(OC)c(/C=C/C(=O)c2ccc(C(=O)O)cc2)cc1-c1cccs1 [Example 49, 4-(3E-{2-Methoxy-4-[2-(2-methoxy-ethoxy)-ethoxy]-5-thiophen-2-yl-phenyl}-acryloyl)-benzoic acid] | > 5.00 | 174 to 175 °C

Row | SMILES | pIC50 (VCAM-1) | melting point
17 | COc1cc(OCC(CO)CO)c(-c2cccs2)cc1/C=C/C(=O)c1ccc(C(=O)O)cc1 [Example 50, 4-{3E-[4-(3-Hydroxy-2-hydroxymethyl-propoxy)-2-methoxy-5-thiophen-2-yl-phenyl]-acryloyl}-benzoic acid] | < 5.00 | 199 to 201 °C
18 | CCOc1cc(OC)c(/C=C/C(=O)c2ccc(C(=O)O)cc2)cc1-c1cccs1 [Example 53, 4-[3E-(4-Ethoxy-2-methoxy-5-thiophen-2-yl-phenyl)-acryloyl]-benzoic acid] | > 5.30 | 210 to 212 °C
19 | COc1cc(O)c(-c2cccs2)cc1/C=C/C(=O)c1ccc(C(=O)O)cc1 [Example 54, 4-[3E-(4-Hydroxy-2-methoxy-5-thiophen-2-yl-phenyl)-acryloyl]-benzoic acid] | > 5.00 | 243 °C (dec.)
20 | COc1cc(OC)c(-c2nccs2)cc1/C=C/C(=O)c1ccc(C(=O)O)cc1 [Example 55, 4-[3E-(2,4-Dimethoxy-5-thiazol-2-yl-phenyl)-acryloyl]-benzoic acid] | > 5.30 | > 260 °C
21 | COc1cc(OC)c(-c2cccn2C(=O)OC(C)(C)C)cc1/C=C/C(=O)c1ccc(C(=O)O)cc1 [Example 57, 2-{5-[3-(4-Carboxy-phenyl)-3-oxo-E-propenyl]-2,4-dimethoxy-phenyl}-pyrrole-1-carboxylic acid tert-butyl ester] | > 5.30 | 205 to 207 °C
22 | COc1cc(O)c(/C=C/C(=O)c2ccc(C(=O)O)cc2)cc1-c1cccs1 [Example 58, 4-[3E-(2-Hydroxy-4-methoxy-5-thiophen-2-yl-phenyl)-acryloyl]-benzoic acid] | < 5.00 | 125 °C (dec.)
23 | COc1cc(OC)c(-c2cc3ccccc3[nH]2)cc1/C=C/C(=O)c1ccc(C(=O)O)cc1 [Example 61, 4-{3E-[5-(1H-Indol-2-yl)-2,4-dimethoxy-phenyl]-acryloyl}-benzoic acid] | > 6.00 | 210 to 212 °C
24 | COc1cc(OCc2c(C)noc2C)c(/C=C/C(=O)c2ccc(C(=O)O)cc2)cc1-c1cccs1 [Example 62, 4-{3E-[2-(3,5-Dimethyl-isoxazol-4-ylmethoxy)-4-methoxy-5-thiolphen-2-yl-phenyl]-acryloyl}-benzoic acid] | > 5.30 | 213 to 215 °C
25 | COc1cc(OCC(CO)CO)c(/C=C/C(=O)c2ccc(C(=O)O)cc2)cc1-c1cccs1 [Example 64, 4-{3E-[2-(3-Hydroxy-2-hydroxymethyl-propoxy)-4-methoxy-5-thiophen-2-yl-phenyl]-acryloyl}-benzoic acid] | < 5.00 | 219 to 220 °C
26 | Cl.O=C(O)c1ccc(C(=O)/C=C/c2cc(-c3cccs3)ccc2OCCCN2CCOCC2)cc1 [Example 65, 4-{3E-[2-(3-Morpholin-4yl-propoxy)-5-thiophen-2-yl-phenyl]-acryloyl}-benzoic acid, hydrochloride] | > 6.00 | 234 to 236 °C
27 | COc1cc(OCCCN2CCOCC2)c(/C=C/C(=O)c2ccc(C(=O)O)cc2)cc1-c1cccs1.Cl [Example 66, 4-{3E-[4-Methoxy-2-(3-morpholin-4-yl-propoxy)-5-thiophen-2-yl-phenyl]-acryloyl}-benzoic acid, hydrochloride] | > 6.00 | 188 to 191 °C (dec.)
28 | COc1cc(OCC(=O)N(C)C)c(/C=C/C(=O)c2ccc(C(=O)O)cc2)cc1-c1cccs1 [Example 67, 4-[3E-(2-Dimethylcarbamoylmethoxy-4-methoxy-5-thiophen-2-yl-phenyl)-acryloyl]-benzoic acid] | > 5.00 | 228 to 229 °C
29 | COCCOCCOCCOc1cc(OC)c(-c2cccs2)cc1/C=C/C(=O)c1ccc(C(=O)O)cc1 [Example 68, 4-[3E-(4-Methoxy-2-{2-[2-(2-methoxy-ethoxy)-ethoxy]-ethoxy}-5-thiophen-2-yl-phenyl)-acryloyl]-benzoic acid] | > 5.30 | 137 to 138 °C
30 | COc1cc(OC)c(-c2csc(C)n2)cc1/C=C/C(=O)c1ccc(C(=O)O)cc1 [Example 69, 4-{3E-[2,4-Dimethoxy-5-(2-methyl-thiazol-4-yl)-phenyl]-acryloyl}-benzoic acid] | > 5.30 | 201 to 202 °C (dec.)
31 | COc1cc(OC)c(-c2nc3ccccc3[nH]2)cc1/C=C/C(=O)c1ccc(C(=O)O)cc1.Cl [Example 70, 4-{3E-[5-(1H-Benzoimidazol-2-yl)-2,4-dimethoxy-phenyl]-acryloyl}-benzoic acid] | > 5.30 | > 240 °C (dec.)

— US7094801B2, “Chalcone derivatives and their use to treat diseases” (Atherogenics, Inc., priority 2001, dated 2006)
